Experimental data: patent US20260284240A1, “RADIOLABELED COMPOUND FOR USE IN A METHOD OF TREATING CARBONIC ANHYDRASE IX POSITIVE DISEASES” (DEBIOPHARM INTERNATIONAL S.A., priority 2023, published 2026)
Where two headings read alike, the source gives them in different places. Starred links: 1 amine or outer side, 2 acyl side, 3 side chain; linkers in the order of their positions; H or OH if unused. Positions of bridges follow the written chain, without caps; N, C: chain ends. Non-standard residues stand in square brackets, D forms with d. Residues, ends and D or L forms follow the SMILES beside them. *: point of attachment. Phe(3-NHCO(CH2)3SO2NH2) = N[C@@H](Cc1cccc(NC(=O)CCCS(N)(=O)=O)c1)C(=O)O; DOTA = O=C(O)CN1CCN(CC(=O)O)CCN(CC(=O)*)CCN(CC(=O)O)CC1; mXylylene = c1cc(C[*:1])cc(C[*:2])c1; X1 = O=C(CN1CCN([*:1])CC1)[*:2]

Key:
[1] = Pharmacokinetics after single i.v. dose in healthy male beagle dogs; type: in vivo; details: dog; for concentration at 24 h / dose excreted at 24 h: iv; for concentration at 24 h: 24 h urine, read-out: Mean amount of unchanged compound excreted in urine; for dose excreted at 24 h: urine, read-out: Dose excreted unchanged in urine
Description: The pharmacokinetics of DPI-4452 after a single intravenous (i.v.) dose was investigated in healthy dogs. […] Plasma and urine samples collected after dosing were analyzed using a LC-HRMS (liquid chromatography coupled with high-resolution mass spectrometry) assay method. Concentration values were used for pharmacokinetic calculations.
DPI 4452 was formulated in 0.1 M HEPES pH 7.0 at the final concentrations of 0.05 and 0.4 mg/mL for dosing at 0.1 and 0.8 mg/kg, respectively. Male beagle dogs (3 animals per dose level; overall 8.9 to 12.4 kg body weight) were administered intravenously (bolus) in a 2 mL/kg dosing volume. Blood samples were collected in K2EDTA tubes at 5 min, 15 min, 30 min, 1 h, 2 h, 4 h, 6 h, 24 h, and urine was collected over 24 hours post dose. The blood samples were kept on wet ice until plasma separation by centrifugation within 60 min after sampling. The plasma samples were transferred into plastic tubes, frozen and stored at −80° C. until analysis.
Plasma and urine samples were analyzed by LC-HRMS after solid phase extraction, using DPI-4501 as internal standard. Chromatographic separation was run on a Waters Acquity HSS T3 C18 2.1×50 mm, 1.8 μm column. Detection was achieved on a Sciex AP16600 TOF mass spectrometer. The lower limit of quantification was 2.00 ng/mL in urine and plasma.
The NCA pharmacokinetic analysis of plasma concentration data was conducted using Phoenix WinNonlin 6.3 software. Nominal doses were used for all animals. The terminal phase half-life (T1/2) was calculated by least-squares regression analysis of the terminal linear part of the log concentration-time curve. The area under the plasma concentration-time curve (AUC) was determined with the linear trapezoidal rule for increasing values and log trapezoidal rule for decreasing values up to the last measurable concentration.

[2] = Functional observation battery (FOB), central nervous system, in dogs; type: in vivo; details: dog, FOB 1 hour after dosing
Description: The test item treatment led to unaffected body weights, weight gains, and food intake. Likewise, no treatment-related abnormalities were reported during ophthalmic examinations, urinalysis, blood biochemistry, coagulation, and hematology investigations. There were no related organ weight changes and macroscopic and microscopic observations at early and late necropsies. Jacketed external telemetry was used to evaluate the potential cardiovascular and respiratory effects in the Subset B. Cardiorespiratory telemetry recordings were performed during the pre-test, Day 1 and 14. […] Arterial blood pressure parameters (systolic and diastolic blood pressure and mean arterial pressure) were measured continuously during consecutive 30-minute periods at pre-dose and for up to 6 h after dosing and over consecutive 60-minute periods up to 24 h after dosing. The respiratory rate was monitored on the pre-test, Day 1 and Day 14 at 0.5, 1, 2, 3, 4, 6, 8, 12, 16, 20, and 24 h. […] The potential effects on central nervous system parameters were evaluated under restrained and non-restrained conditions using a FOB in Subset A. Neurologic, autonomic, and behavioral investigations were performed in the pre-test, pre-dose, and 1 hour after dosing on Day 1.

[3] = Toxicokinetics in the dose range finding study in dogs (LC-HRMS plasma); type: in vivo, dog; details: for CL / Vss / t1/2 / Dose-normalized AUClast / AUClast / concentration at […]: dog plasma, i.v. bolus; for CL / Vss / t1/2 / AUClast / concentration at […]: mean n = 2; for Dose-normalized AUClast: AUClast divided by dose in μg/kg; for concentration at […]: iv, read-out: C15 min
Description: The following parameters and endpoints were evaluated: mortality, clinical observations, body weights, food consumption, local reactions, clinical pathology parameters (hematology, coagulation, and clinical chemistry), organ weights, and macroscopic examinations. Both animals were sampled for toxicokinetics (TK) on each dosing occasion (i.e., on day 1, day 5, day 9 and day 13) at: pre-dose, 15 min, 30 min, 1 h, 6 h and 24 h. Blood samples were collected in K2EDTA tubes. Plasma was prepared by centrifugation (2500 g for 10 minutes, +4° C.) within 1 hour after collection, and then frozen within 1 hour after centrifugation and stored at −80° C. […] Chromatographic separation was achieved using a Waters Acquity UPLC system with a Waters Acquity HSS T3 C18 2.1×50 mm, 1.8 μm column. Chromatography was conducted at 50° C. at a flow rate of 0.7 mL/min using a mobile phase consisting of A: acetonitrile, and B: 1% formic acid in water, according to the following linear gradient: 0 to 0.1 min: 90% B; 0.1 to 4.1 min: from 90% B to 74% B; 4.1 to 4.2 min: from 74% B to 5% B; 4.2 to 4.6 min: 5% B; 4.6 to 4.7 min: from 5% B to 90% B; 4.7-5.1 min; 90% B. Detection was performed using a Sciex AP16600 TOF mass spectrometer. Toxicokinetic parameters were estimated from concentration-time data using Phoenix pharmacokinetic software (version 6.4, Certara L.P.). A non-compartmental approach consistent with the bolus intravenous injection was used for parameter estimation. […] Neither in-life parameters nor clinical pathology parameters were affected. In addition, there were no related macroscopic observations noted at necropsy.

CC(C)C[C@@H]1NC(=O)[C@H](Cc2cccc(NC(=O)CCCS(N)(=O)=O)c2)NC(=O)[C@H](CC(=O)O)NC(=O)[C@H]2CCCN2C(=O)[C@H](CCC(=O)O)NC(=O)[C@@H](NC(=O)[C@H](CCC(N)=O)NC(=O)CN2CCN(C(=O)CN3CCN(CC(=O)O)CCN(CC(=O)O)CCN(CC(=O)O)CC3)CC2)CSCc2cccc(c2)CSC[C@@H](C(N)=O)NC(=O)[C@H](CO)NC(=O)[C@H](Cc2c[nH]c3ccccc23)NC(=O)[C@H]([C@@H](C)O)NC1=O [DPI-4452, DOTA-PPAc-Gln-[Cys(3MeBn)-Glu-pro-Asp-Af3(Cpsu)-Leu-Thr-Trp-Ser-Cys]-NH2] ({DOTA}-[X1]QCE[dP]D[Phe(3-NHCO(CH2)3SO2NH2)]LTWSC-NH2; linker 3-12 via mXylylene)
Time up to which plasma concentration was quantifiable ([1]; i.v. 0.1 mg/kg): up to 2 h
Time up to which plasma concentration was quantifiable ([1]; i.v. 0.8 mg/kg): ≤ 4 h
concentration at 24 h ([1]; i.v. 0.1 mg/kg): 26.8 ng/mL
concentration at 24 h ([1]; i.v. 0.8 mg/kg): 191 ng/mL
dose excreted at 24 h ([1]; i.v. 0.1 mg/kg): 0.29%
dose excreted at 24 h ([1]; i.v. 0.8 mg/kg): 0.14%
Central nervous system (neurologic, autonomic, behavioral domains) [2]: No effects were observed on the central nervous system
CL ([3]; Day 1, […], 1440 min): 11.7 mL/min/kg
Vss ([3]; Day 1, […], 1440 min): 0.22 L/kg
t1/2 ([3]; Day 1, […], 1440 min): 15 min
Dose-normalized AUClast ([3]; Day 1, […]): 1.36
AUClast ([3]; Day 5, 0.08 mg/kg, 7200 min): 117 ng·h/mL
Dose-normalized AUClast ([3]; Day 5, 0.08 mg/kg): 1.46
AUClast ([3]; Day 9, 0.4 mg/kg, 12960 min): 926 ng·h/mL
CL ([3]; Day 9, 0.4 mg/kg, 12960 min): 6.83 mL/min/kg
Vss ([3]; Day 9, 0.4 mg/kg, 12960 min): 0.24 L/kg
t1/2 ([3]; Day 9, 0.4 mg/kg, 12960 min): 29.4 min
Dose-normalized AUClast ([3]; Day 9, 0.4 mg/kg): 2.31
AUClast ([3]; Day 13, 0.8 mg/kg, 18720 min): 3530 ng·h/mL
CL ([3]; Day 13, 0.8 mg/kg, 18720 min): 3.52 mL/min/kg
Vss ([3]; Day 13, 0.8 mg/kg, 18720 min): 0.32 L/kg
t1/2 ([3]; Day 13, 0.8 mg/kg, 18720 min): 52.8 min
Dose-normalized AUClast ([3]; Day 13, 0.8 mg/kg): 4.42
Dose proportionality of exposure ([3]; dog, 25-800 μg/kg i.v.): exposure increased more than dose-proportionally
concentration at […] ([3]; Day 1, 0.025 mg/kg): 46.8 ng/mL
concentration at […] ([3]; Day 5, 0.08 mg/kg): 156 ng/mL
concentration at […] ([3]; Day 9, 0.4 mg/kg): 880 ng/mL
concentration at […] ([3]; Day 13, 0.8 mg/kg): 2000 ng/mL
